Laboratory results as given in article PMC5693942 (Scientific Reports, 2017).
Read-outs that look alike come from different tables or passages of the source.

Legend:
[1] = cited from earlier work
[2] = Activated sludge simulating microcosms (degradation of FL, formation of NFL); type: physicochemical
Method: Activated sludge microcosm experiments were conducted in the dark and aerobic conditions. Three microcosm bioreactors were investigated in duplicate. They were filled with 2 L of fresh activated sludge collected from a local wastewater treatment plant. […] Dark conditions were simulated by covering up the flask with foil. Aerobic conditions were obtained using air from BOC air cylinder and a thorough mixing was maintained using magnetic stirrers. The experiment was 24 hours long. […] Collected samples were subsequently frozen until their analysis to prevent degradation of compounds.
The compounds studied are characterized as having low volatility and therefore volatilization was not considered as a potential removal pathway in studied microcosms. Photodegradation was also not considered (not relevant) under tested activated sludge conditions. Therefore the two important degradation mechanisms to consider were biodegradation and sorption to sludge. […] However, in this study, sorption equilibrium was assumed and therefore sorption could be considered negligible. This is because sorption is assumed to be fast when compared to biological degradation.
Several reports utilized pseudo-first-order kinetics for degradation of micropollutants in activated sludge reactors[48]–[50]. […] Pseudo-first order biodegradation rate k1 [L g^−1h^−1]

[3] = River water simulating microcosms (degradation of FL)

In the case of NFL glucuronide, the “excreted in the urine as this species” value ([1]; in vivo) is given as 8.2%.
In the case of `O=C(O)CNC(=O)c1ccccc1` [hippuric acid], the “excreted in the urine as this species” value ([1]; after FL, ref [3]) is given as over 20%.
`NCCC(Oc1ccc(C(F)(F)F)cc1)c1ccccc1` (stereo not shown) [NFL, norfluoxetine] showed an EF ([2]; 10 µg L-1 microcosm, time 0) of 0.784, an EF ([2]; 10 µg L-1 microcosm, time 0.5) of 0.663 and an EF ([2]; 10 µg L-1 microcosm, time 1) of 0.000. For the same compound, the EF ([2]; 10 µg L-1 microcosm, time 1.5) was 0.887, the EF ([2]; 10 µg L-1 microcosm, time 2) was 0.750 and the EF ([2]; 10 µg L-1 microcosm, time 3) was 0.839. For the same compound, the EF ([2]; 10 µg L-1 microcosm, time 5) was 0.810, the EF ([2]; 10 µg L-1 microcosm, time 8) was 0.856 and the EF ([2]; 10 µg L-1 microcosm, time 12) was 0.749. For the same compound, the EF ([2]; 10 µg L-1 microcosm, time 24) was 0.752, the “enantiomeric fraction (EF)” value ([2]; 10 µg L^−1 reactor, after further slow removal) was over 0.7 and the EF ([2]; 100 µg L-1 microcosm, time 0) was 0.833. For the same compound, the EF ([2]; 100 µg L-1 microcosm, time 0.5) was 0.826, the EF ([2]; 100 µg L-1 microcosm, time 1) was 0.858 and the EF ([2]; 100 µg L-1 microcosm, time 1.5) was 0.872. For the same compound, the EF ([2]; 100 µg L-1 microcosm, time 2) was 0.848, the EF ([2]; 100 µg L-1 microcosm, time 3) was 0.852 and the EF ([2]; 100 µg L-1 microcosm, time 5) was 0.851. It also gave an EF ([2]; 100 µg L-1 microcosm, time 8) of 0.843, an EF ([2]; 100 µg L-1 microcosm, time 12) of 0.864 and an EF ([2]; 100 µg L-1 microcosm, time 24) of 0.794. For the same compound, the “enantiomeric fraction (EF)” value ([2]; 100 µg L^−1 microcosm) was over 0.7, the EF ([3]; DAR (dark abiotic), day 5) was 0.000 and the EF ([3]; DBR (dark biotic), day 1) was 0.000. It also gave an EF ([3]; DBR (dark biotic), day 3) of 0.333, an EF ([3]; DBR (dark biotic), day 5) of 0.417 and an EF ([3]; LAR (light abiotic), day 2) of 0.000. For the same compound, the EF ([3]; LAR (light abiotic), day 3) was 0.358, the EF ([3]; LAR (light abiotic), day 4) was 0.250 and the EF ([3]; LAR (light abiotic), day 5) was 0.000. For the same compound, the EF ([3]; LAR (light abiotic), day 8) was 0.000, the EF ([3]; LAR (light abiotic), day 9) was 0.000 and the EF ([3]; LAR (light abiotic), day 10) was 0.000. For the same compound, the EF ([3]; LAR (light abiotic), day 11) was 0.000, the EF ([3]; LAR (light abiotic), day 12) was 0.225 and the EF ([3]; LAR (light abiotic), day 15) was 0.000. The EF ([3]; LAR (light abiotic), day 16) was 0.225, the EF ([3]; LBR (light biotic), day 1) was 0.000 and the EF ([3]; LBR (light biotic), day 2) was 0.000. For the same compound, the EF ([3]; LBR (light biotic), day 3) was 0.292 and the EF ([3]; LBR (light biotic), day 5) was 0.292.
